The source of these data is patent publication US20180071188A1, “COMPOSITION FOR THE PERMANENT DEFORMATION OF HAIR HAVING REDUCED ODOUR” (The Procter & Gamble Company, priority 2016, published 2018).

Series [1] is described as follows: distribution coefficient log P (octanol/water). Conditions: raw material of malodor suppressant system. It counts as physicochemical. From the text: In the fields of organic and medicinal chemistry, a distribution (P) coefficient is the ratio of concentrations of a compound in the two phases of a mixture of two immiscible solvents at equilibrium. […] One of the solvents chosen is water while the second is octanol. […] The partition coefficient is the ratio of concentrations of un-ionized compound between the two solutions. The logarithm of the ratio of the concentrations of the un-ionized solute in the solvents is called log P:
The log P (octanol/water) is referred hereinafter as “log P”, unless otherwise specified.

A short description of series [2]: density of malodor suppressant. It is filed as physicochemical. The conditions noted are these: 23° C., 1.013 bar. The method, then: All densities relate to a temperature of 23° C. and a pressure of 1.013 bar. Density measurements are typically performed via determining the weight and the volume of the compound to be measured, or according to any other processes known to the skilled person.

Series [3] in a line: Test Procedure 2: panel test rating thiol malodor of permanent shaping premix mixed with malodor suppressant system. The conditions noted are these: scale 0 to 5 (0=no thiol smell, 5=harsh thiol smell); 5 panelists; premix + 0.7 wt.-% suppressant system; same rating immediately and 25 min after mixing. How it is done: A […] performed with 5 panelists with trained expertise in the classification of thiol malodour. The panelists received a mixture of the permanent shaping premix and 0.7 wt.-% of one malodor suppressant system, as described above (stirred by a single operator for all tests). Immediately and 25 min after mixing, the panelists were asked to rate the thiol malodor according to a scale of 0 to 5 (0=no thiol smell, 5=harsh thiol smell), the mixture being passed from panelist to panelist with an additional stirring for each of the panelists. The same odor rating is obtained immediately after mixing and 25 min after mixing.

For `CC1COCc2cc3c(cc21)C(C)(C)C(C)C3(C)C` (centres unmarked) [S3, Galaxolide], the logP in series [1] turned out to be 5.93. The density in series [2] was 0.946 g/mL. In series [3], the “Odor (thiol malodor rating)” value was 1-2.
For the compound Operanide [S4], the “log P (octanol/water)” value in series [1] is 4.90. Moreover, the density in series [2] was found to be 1.01 g/mL. Besides, in series [3], the “Odor (thiol malodor rating)” value is given as 2.
With `O=C(OCc1ccccc1)c1ccccc1` [S6, Benzyl benzoate], the density in series [2] is reported as 1.129 g/mL. In addition, the “Odor (thiol malodor rating)” value in series [3] was 3.
`O=C1CCCCCCCCC/C=C/CCCO1` [S2, Habanolide]: the “log P (octanol/water)” value in series [1] turned out to be 4.77. The compound also gave a density in series [2] of 0.901 g/mL. Moreover, the “Odor (thiol malodor rating)” value in series [3] came to 4.
Regarding `CCCCCCCCCCCCCC(=O)OC(C)C` [S1, isopropylmyristate], in series [1] (octanol/water), the logP is 7.41. For the same compound, the density in series [2] is recorded as 0.864 g/mL. Besides, the “Odor (thiol malodor rating)” value in series [3] was 3.
Regarding `CC1COC(C)(c2ccc3c(c2)C(C)(C)CCC3(C)C)O1` (centres unmarked) [S5, Okoumal], the “log P (octanol/water)” value in series [1] was 5.79. Further, in series [2], the density came out at 0.971 g/mL. Also, the “Odor (thiol malodor rating)” value in series [3] is given as 3.
